Assay results reported in patent US6656453B2, “Medicaments” (SmithKline Beecham Corporation, priority 1995, dated 2003).

Legend:
[1] = Thermal activity by microcalorimetry; format: physicochemical; settings: microcalorimeter at 25° C., scanned from about 30% to about 90% relative humidity
Protocol: To confirm that the salbutamol sulphate had been converted to the desired low energy, crystalline form i.e. had been annealed, the thermal activity and the water content of the treated salbutamol sulphate compared to untreated salbutamol sulphate was measured using standard microcalorimetry techniques and moisture sorption techniques respectively. A Hart Scientific Microcalorimeter (model 4400) was operated at 25° C. with a water adsorption unit and scanned from about 30% to about 90% relative humidity over a 11.5 hour period. Thermal equilibration time was 1 to 2 hours.

[2] = Water content by vacuum balance moisture sorption; format: physicochemical; settings: for water content: typical/normal value stated in description
Protocol: To confirm that the salbutamol sulphate had been converted to the desired low energy, crystalline form i.e. had been annealed, the thermal activity and the water content of the treated salbutamol sulphate compared to untreated salbutamol sulphate was measured using standard microcalorimetry techniques and moisture sorption techniques respectively.
A VTI Corp vacuum balance moisture sorption apparatus (model MB300G) was operated at 25° C., and scanned from about 20% to about 90% relative humidity, total scan time about 15 hours. Drying was accomplished at 35° C. under vacuum for approximately 1 hour before the equilibrium condition used for the scans of 3 micrograms/6 minutes was achieved. This same equilibrium weight change criterion was used for the sorption measurements.

[3] = listed as Particulate salbutamol sulphate

thermal activity (heat rate) [1]	water content ([2]; listed as annealed salbutamol sulphate)	thermal activity (heat rate) [1, 3]	moisture content (moisture sorption profile, % weight gain against relative humidity) ([2]; 25° C., scanned from about 20% to about 90% relative humidity)	water content [2, 3] [% by weight]	Substance
lack significant thermal activity	–	–	–	–	salbutamol sulphate [Example 2]
lacks significant thermal activity	–	–	–	–	salbutamol sulphate [Example 4]
absent	less than 0.4 % by weight	–	–	–	salbutamol sulphate [treated salbutamol sulphate]
lack significant thermal activity	–	–	–	–	salbutamol sulphate [Example 3]

Substance	thermal activity (heat rate) [1]	water content ([2]; listed as annealed salbutamol sulphate)	thermal activity (heat rate) [1, 3]	moisture content (moisture sorption profile, % weight gain against relative humidity) ([2]; 25° C., scanned from about 20% to about 90% relative humidity)	water content [2, 3] [% by weight]
salbutamol sulphate [untreated salbutamol sulphate, reference compound]	exothermic rise in heat rate up to approximately 55% relative humidity followed by a large endothermic response	–	significantly greater thermal activity	significantly larger moisture content	≥ 0.5
